The values below come from US20220249463A1, “METHODS OF ALTERING CARDIAC REMODELING USING COMPOUNDS THAT PROMOTE GLUCOSE OXIDATION” (IMBRIA PHARMACEUTICALS, INC., priority 2019, published 2022).

The structures appear in SMILES notation.

Test [1] relates to TAC mice. As to the kind of experiment: TAC mice: cardiac fibrosis, Masson's trichrome. Format: in vivo. To be noted: end of 6-week experiment.
For test [2], the system named is TAC mice. As to the kind of experiment: TAC mice: echocardiography. Type of test: in vivo.

For `COc1ccc(CN2CCN(CCOC(=O)c3cccnc3)CC2)c(OC)c1OC` [CV-8972, 2-(4-(2,3,4-trimethoxybenzyl)piperazin-1-yl)ethyl nicotinate], in the test on TAC mice [1], the “cardiac fibrosis (fibrotic area to whole heart tissue area)” value was 6.6±0.6%. For the same compound, in the test on TAC mice [2] (3-weeks after TAC), the “EF (in words)” value was “significantly increased”, the IVRT was determined as 32 ± 1 ms, the IVSd is on record as 1.29±0.04 mm and the LV mass was 154 ± 8 mg. For the same compound, in the test on TAC mice [2] (3-weeks after TAC, CV-8814 7.5, CV-8972 10 mg/kg/day), the “left ventricular FS” value is given as 47%±3%. In the test with TAC mice [2] (6-weeks after TAC), this compound had an IVRT of 31 ± 2 ms, an IVSd of 1.26±0.04 mm and an LV mass of 156 ± 10 mg. For the same compound, the “left ventricular FS” value in the test with TAC mice [2] (6-weeks after TAC (end of the experiment)) is recorded as 46%±3%. Besides, in the test with TAC mice [2] (conclusion, 6 weeks treatment), the “cardiac functions in TAC mice (in words)” value is “improved cardiac functions”. Further, the “EF (in words)” value with TAC mice [2] (to the end of the study (6 weeks)) was “protective effect was sustained to the end of the study”.
